Measured values reported in patent US10765680B2, “Combination of a MCL-1 inhibitor and a taxane compound, uses and pharmaceutical compositions thereof” (priority 2017, dated 2020).
Values belong to the molecule of their own block, whether it stands above or below them.

What was measured:
[1] = tested on: SK-BR-3 cells; test: SK-BR-3 viability (Cell Titer Glo, propidium iodide), Bliss synergy; format: cell-based; conditions: QVD-OPh 10 μM, propidium iodide staining, 72 hours
[2] = tested on: H522 lung cancer cell line; test: 3 days CellTiterGlo viability, checkerboard combination, H522; format: cell-based; conditions: single agent
Procedure: (§1) In addition, all media contained penicillin (100 IU/ml), streptomycin (100 μg/ml) and L-glutamine (2 mM).
(§2) Cell lines were cultured at 37° C. in a humidified atmosphere containing 5% CO2 and expanded in T-150 flasks. In all cases cells were thawed from frozen stocks, expanded through ≥1 passage using appropriate dilutions, counted and assessed for viability using a CASY cell counter prior to plating 150 μl/well at the densities indicated in Table 2 into 96-well plates.
(§3) Stock solutions of compounds were prepared at a concentration of 5 mM in DMSO and stored at −20° C.
(§4) In order to analyze the activity of the compounds in single agent or in combination, cells were seeded and treated with seven or eight 3.16-fold serial dilutions of each compound dispensed, either individually or in all possible permutations in a checkerboard fashion, directly into the cell assay plates as indicated in FIGS. 5 and 6. Effects of the single agents as well as their checkerboard combinations on cell viability were assessed after 3 days of incubation at 37° C./5% CO2 by quantification of cellular ATP levels using CellTiterGlo at 75 μL reagent/well. At least two independent experiments, each one performed in duplicates, were performed. Luminescence was quantified on a multipurpose plate reader.
(§5) Single agent IC50s were calculated using standard four-parametric curve fitting. Potential synergistic interactions between compound combinations were assessed using the Excess Inhibition 2D matrix according to the Loewe additivity model and are reported as Synergy Score (Lehar et al. 2009). All calculations were performed using Clalice™ Bioinformatics Software available in Horizon website.

[3] = tested on: MDA-MB-468 breast cancer cell line; test: 3 days CellTiterGlo viability, checkerboard combination, MDA-MB-468; format: cell-based; conditions: single agent
Procedure: as §1, §2, §3, §4, §5

[4] = tested on: 2 breast cancer cell lines (MDA-MB-453 and MDA-MB-468) and one lung cancer cell line (H522); test: 3 days CellTiterGlo viability, summary of the three cell lines; format: cell-based; conditions: for cell lines tested whose growth was inhibited by the single agent: three cell lines tested
Procedure: as §1, §2, §3, §4, §5

[5] = tested on: MDA-MB-453 breast cancer cell line; test: 3 days CellTiterGlo viability, checkerboard combination, MDA-MB-453; format: cell-based; conditions: single agent
Procedure: as §1, §2, §3, §4, §5

[6] = tested on: TNBC PDX models 110T, 838T and PDX OD-BRE-0589; conditions: Compound 2 25 mg/kg i.v. weekly for six weeks; three TNBC PDX models
[7] = tested on: SK-BR-3 breast cancer cell line; test: 72 hours CellTiter-Glo proliferation assay, SK-BR-3; format: cell-based; conditions: Homo sapiens, single agent, read-out: Abs IC50
Procedure: (§6) Compounds were dissolved in 100% DMSO (Sigma, Catalog # D2438-50 ML) at a stock concentration of 10 mM and stored at −20° C. until use. Compounds were arrayed in 2 ml deep 96-well plates (Greiner bio-one, catalog number 780271) serially diluted 3-fold. Compound 1 was used over a concentration range of 0.0-10.0 μM. Paclitaxel was used over a concentration range of 0.0-1.0 μM in breast cancer cells and 0.0-2.0 μM range in lung cancer cells.
(§7) All cell lines were purchased from the American Type Culture Collection and cultured according to vendor recommendations. […] All cell lines were determined to be free of mycoplasma contamination by a PCR detection assay performed at Idexx Radil (Columbia, Mo., USA) and authenticated by SNP analysis. […] Cells were expanded to T-75 flasks and assessed for viability using a Beckman-Coulter ViCell counter prior to plating. […]
(§8) Cell proliferation was measured in 72 hours CellTiter-Glo™ (CTG) assays and all results shown are the result of at least triplicate measurements. […] After 72 hours of compound treatment the effects of compounds on cell proliferation was determined using the CellTiter-Glo™ Luminescent Cell Viability Assay (Promega, Catalog # G7573). This is a homogeneous method to determine the number of viable cells in culture based on quantitation of the ATP present, which signals the presence of metabolically active cells. […]

[8] = tested on: Hs 578T breast cancer cell line; test: 72 hours CellTiter-Glo proliferation assay, Hs 578T; format: cell-based; conditions: Homo sapiens, single agent, read-out: Abs IC50
Procedure: as §6, §7, §8

[9] = tested on: HCC1395 breast cancer cell line; test: 72 hours CellTiter-Glo proliferation assay, HCC1395; format: cell-based; conditions: Homo sapiens, single agent, read-out: Abs IC50
Procedure: as §6, §7, §8

[10] = tested on: MCF7 breast cancer cell line; test: 72 hours CellTiter-Glo proliferation assay, MCF7; format: cell-based; conditions: Homo sapiens, single agent, read-out: Abs IC50
Procedure: as §6, §7, §8

[11] = tested on: MDA-MB-453 breast cancer cell line; test: 72 hours CellTiter-Glo proliferation assay, MDA-MB-453; format: cell-based; conditions: Homo sapiens, single agent, read-out: Abs IC50
Procedure: as §6, §7, §8

[12] = tested on: HCC1937 breast cancer cell line; test: 72 hours CellTiter-Glo proliferation assay, HCC1937; format: cell-based; conditions: Homo sapiens, single agent, read-out: Abs IC50
Procedure: as §6, §7, §8

[13] = tested on: A549 lung cancer cell line; test: 72 hours CellTiter-Glo proliferation assay, A549; format: cell-based; conditions: Homo sapiens, single agent, read-out: Abs IC50
Procedure: as §6, §7, §8

[14] = tested on: MDA-MB-436 breast cancer cell line; test: 72 hours CellTiter-Glo proliferation assay, MDA-MB-436; format: cell-based; conditions: Homo sapiens, single agent, read-out: Abs IC50
Procedure: as §6, §7, §8

[15] = tested on: MDA-MB-157 breast cancer cell line; test: 72 hours CellTiter-Glo proliferation assay, MDA-MB-157; format: cell-based; conditions: Homo sapiens, single agent, read-out: Abs IC50
Procedure: as §6, §7, §8

[16] = tested on: HCC38 breast cancer cell line; test: 72 hours CellTiter-Glo proliferation assay, HCC38; format: cell-based; conditions: Homo sapiens, single agent, read-out: Abs IC50
Procedure: as §6, §7, §8

[17] = tested on: BT-549 breast cancer cell line; test: 72 hours CellTiter-Glo proliferation assay, BT-549; format: cell-based; conditions: Homo sapiens, single agent, read-out: Abs IC50
Procedure: as §6, §7, §8

[18] = tested on: MDA-MB-231 breast cancer cell line; test: 72 hours CellTiter-Glo proliferation assay, MDA-MB-231; format: cell-based; conditions: Homo sapiens, single agent, read-out: Abs IC50
Procedure: as §6, §7, §8

[19] = tested on: Cal-148 breast cancer cell line; test: 72 hours CellTiter-Glo proliferation assay, Cal-148; format: cell-based; conditions: Homo sapiens, single agent, read-out: Abs IC50
Procedure: as §6, §7, §8

[20] = tested on: NCI-H522 lung cancer cell line; test: 72 hours CellTiter-Glo proliferation assay, NCI-H522; format: cell-based; conditions: Homo sapiens, single agent, read-out: Abs IC50
Procedure: as §6, §7, §8

[21] = tested on: HCC1500 breast cancer cell line; test: 72 hours CellTiter-Glo proliferation assay, HCC1500; format: cell-based; conditions: single agent, read-out: Abs IC50
Procedure: as §6, §7, §8

[22] = tested on: HCC1954 breast cancer cell line; test: 72 hours CellTiter-Glo proliferation assay, HCC1954; format: cell-based; conditions: Homo sapiens, single agent, read-out: Abs IC50
Procedure: as §6, §7, §8

[23] = tested on: MDA-MB-231 xenografts; test: MDA-MB-231 breast xenograft model, antitumor efficacy; format: in vivo, female nude rats; conditions: paclitaxel 7.5 mg/kg iv QW
[24] = tested on: NCI-H23 lung cancer cell line; test: 72 hours CellTiter-Glo proliferation assay, NCI-H23; format: cell-based; conditions: Homo sapiens, single agent, read-out: Abs IC50
Procedure: as §6, §7, §8

[25] = tested on: HCC70 breast cancer cell line; test: 72 hours CellTiter-Glo proliferation assay, HCC70; format: cell-based; conditions: Homo sapiens, single agent, read-out: Abs IC50
Procedure: as §6, §7, §8

[26] = tested on: MDA-MB-468 breast cancer cell line; test: 72 hours CellTiter-Glo proliferation assay, MDA-MB-468; format: cell-based; conditions: Homo sapiens, single agent, read-out: Abs IC50
Procedure: as §6, §7, §8

[27] = tested on: BT-20 breast cancer cell line; test: 72 hours CellTiter-Glo proliferation assay, BT-20; format: cell-based; conditions: Homo sapiens, single agent, read-out: Abs IC50
Procedure: as §6, §7, §8

[28] = tested on: HCC1143 breast cancer cell line; test: 72 hours CellTiter-Glo proliferation assay, HCC1143; format: cell-based; conditions: Homo sapiens, single agent, read-out: Abs IC50
Procedure: as §6, §7, §8

[29] = tested on: BT-474 breast cancer cell line; test: 72 hours CellTiter-Glo proliferation assay, BT-474; format: cell-based; conditions: Homo sapiens, single agent, read-out: Abs IC50
Procedure: as §6, §7, §8

Compound: CC(C)[C@H](NC(=O)c1ccc2ccccc2n1)C(=O)N[C@@H](CC(=O)O)C(=O)COc1c(F)cccc1F [QVD-OPH, QVD-OPh hydrate]
- effect on cell death induced by docetaxel and Compound 2 [1]: efficiently blocked cell death

- IC50 ([2]; H522 cell line): 140 nM
- IC50 [3]: > 2000 nM
- IC50 [5]: > 2000 nM
Compound: Cc1c(-c2c(-c3ccc(F)o3)sc3ncnc(O[C@H](Cc4ccccc4OCc4ccnn4CC(F)(F)F)C(=O)O)c23)ccc(OCCN2CCN(C)CC2)c1Cl [Compound 2, (2R)-2-{[(5Sa)-5-{3-chloro-2-methyl-4-[2-(4-methylpiperazin-1-yl)ethoxy]phenyl}-6-(5-fluorofuran-2-yl)thieno[2,3-d]pyrimidin-4-yl]oxy}-3-(2-{[1-(2,2,2-trifluoroethyl)-1H-pyrazol-5-yl]methoxy}phenyl)propanoic acid]
- Mean of Max Inh ([2]; H522, 3 days): 92.0%
- Mean of Max Inh [3]: 24.0%
- cell lines tested whose growth was inhibited by the single agent [4]: 1/3
- Mean of Max Inh [5]: 21.0%
- inhibition of tumor growth, single agent [6]: insufficient in inhibiting tumor growth

- IC50 [7]: 2.66 nM
- IC50 [8]: 0.363 nM
- IC50 [9]: 8.03 nM
- IC50 ([2]; Homo sapiens, NCI-H522, 72 h, H522, 3 days): 0.2 nM
- IC50 [10]: 10.4 nM
- IC50 [11]: 4.2 nM
- IC50 [12]: 11.6 nM
- IC50 [13]: 0.163 nM
- IC50 [14]: 14.7 nM
- IC50 [15]: > 1000 nM
- IC50 [16]: 4.33 nM
- IC50 [17]: 8.82 nM
- IC50 [18]: 17.5 nM
- IC50 ([3]; Homo sapiens, 72 h): 0.9 nM
- IC50 [19]: 4.25 nM
- IC50 [20]: 0.48 nM
- IC50 [21]: > 1000 nM
- IC50 [22]: 6.5 nM
- IC50 ([4]; single agent, 2/3 lines tested, read-out: IC50 in the cell lines inhibited): < 1 nM
- IC50 ([5]; Homo sapiens, 72 h): > 1000 nM
- IC50 [24]: 0.22 nM
- IC50 [26]: 3.07 nM
- IC50 [27]: 5.97 nM
- IC50 [28]: 9.43 nM
- IC50 [29]: 1.7 nM
Compound: CC(=O)O[C@H]1C(=O)[C@@]2(C)[C@H]([C@H](OC(=O)c3ccccc3)[C@]3(O)C[C@H](OC(=O)[C@H](O)[C@@H](NC(=O)c4ccccc4)c4ccccc4)C(C)=C1C3(C)C)[C@]1(OC(C)=O)CO[C@@H]1C[C@@H]2O [Paclitaxel, paclitaxel, reference compound]
- Mean of Max Inh ([2]; H522, 3 days): 61.0%
- Mean of Max Inh [3]: 75.0%
- cell lines tested whose growth was inhibited by the single agent [4]: 2/3
- Mean of Max Inh [5]: 37.0%
- T/C % [23]: 34%
- IC50 [25]: 8.39 nM
